This note sets out measurements from ChEMBL document CHEMBL1201862, “PubChem BioAssay data set” (2004).

SMILES strings stand for the structures.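 All cell lines were grown in 96-well plates and treated with compound for 48 hours. GI50 is the concentration that inhibits growth by half.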 The source made the active and inactive calls. Cut-off read from the data, not from the text of the source: active = GI50 up to about 1.1 µM and inactive = higher. Some results are limits rather than exact numbers.

Test systems include U-251; EKVX; OVCAR-8; MDA-MB-231; HT-29; A549; KM12; SF-539; UACC-62; HCT-116; PC-3; M14; TK-10; SK-MEL-2; MCF7; HCT-15; SF-268; MDA-N.
What all share (assay): growth of human tumour cells (NCI), 48 h

Take `N#C/C(N)=C(C#N)/N=C/NCCO`: the GI50 in the assay with U-251, with EKVX, with OVCAR-8, in the assay with MDA-MB-231, in the assay with HT-29 and in the assay with A549 was > 100 µM (inactive) in each case. Besides, the GI50 in the assay with KM12, in the assay on SF-539, in the assay on UACC-62, with HCT-116, in the assay with PC-3 and in the assay on M14 was > 100 µM (inactive) throughout. Also, the GI50 is > 100 µM (inactive) with TK-10; > 100 µM (inactive) with SK-MEL-2; > 100 µM (inactive) with MCF7; greater than 100 µM in the assay with HCT-15; > 100 µM (inactive) in the assay on SF-268; > 100 µM (inactive) in the assay with MDA-N.
As for `CC1(C)CN(c2ccccc2)C(=O)C1OC(=O)[C@@]1(C)C[C@@H]2C=C[C@H]1C2` (stereo partly drawn), the GI50 is 19.2 µM (inactive) in the assay with U-251; 28.4 µM (inactive) in the assay on EKVX; 32.2 µM (inactive) with OVCAR-8; 24.5 µM (inactive) with MDA-MB-231; 12.5 µM (inactive) with HT-29; 29.6 µM (inactive) in the assay with A549. The GI50 is 21.7 µM (inactive) in the assay with KM12; 23.4 µM (inactive) in the assay on SF-539; 18 µM (inactive) in the assay on UACC-62; 19.5 µM (inactive) in the assay on HCT-116; 30 µM (inactive) in the assay with PC-3; 22 µM (inactive) with M14. The GI50 is 30.7 µM (inactive) in the assay on TK-10; 17.8 µM (inactive) in the assay with SK-MEL-2; 24.4 µM (inactive) with MCF7; 22.1 µM in the assay with HCT-15; 27.5 µM (inactive) with SF-268; 18.7 µM (inactive) in the assay on MDA-N.
`O=C(CCc1ccccc1)n1cccc1CO`: the GI50 in the assay with U-251, in the assay on EKVX, in the assay on OVCAR-8, in the assay with MDA-MB-231, in the assay with HT-29 and in the assay on A549 was > 100 µM (inactive) each time. Besides, the GI50 with KM12, in the assay on SF-539, with UACC-62, with HCT-116, with PC-3 and in the assay on M14 was > 100 µM (inactive) each time. In addition, the GI50 in the assay with TK-10 was > 100 µM (inactive); in the assay with SK-MEL-2 it was > 100 µM (inactive); in the assay with MCF7 it was > 100 µM (inactive); with HCT-15, greater than 100 µM; in the assay on SF-268, > 100 µM (inactive); in the assay on MDA-N, > 100 µM (inactive).
With `O=[N+]([O-])/C(C(Cl)=C(Cl)Cl)=C(/Br)SCc1ccccc1`, the GI50 is 4.48 µM (inactive) in the assay on U-251; 5.46 µM (inactive) with EKVX; 2.61 µM (inactive) with OVCAR-8; 2.72 µM (inactive) with MDA-MB-231; 2.11 µM (inactive) with HT-29; 5.85 µM (inactive) in the assay on A549. Also, the GI50 with KM12 was 13.4 µM (inactive); in the assay with SF-539, 7.4 µM (inactive); with UACC-62, 3.42 µM (inactive); in the assay with HCT-116 it was 1.73 µM (inactive); in the assay on PC-3, 2.79 µM (inactive); in the assay on M14, 2.4 µM (inactive). For the same compound, the GI50 with TK-10 was 3.08 µM (inactive); in the assay on SK-MEL-2, 4.42 µM (inactive); with MCF7 it was 2.84 µM (inactive); with HCT-15 it was 2.07 µM; with SF-268, 2.52 µM (inactive); in the assay on MDA-N it was 1.87 µM (inactive).
Consider `Fc1nc(Sc2ncnc3nc[nH]c23)nc(-c2c3ccccc3c3sc4ccccc4n23)n1`, for which the GI50 in the assay with U-251, with EKVX, in the assay with OVCAR-8, with MDA-MB-231, in the assay with HT-29 and in the assay on A549 was > 100 µM (inactive) throughout. Besides, the GI50 was > 100 µM (inactive) in the assay with KM12; > 100 µM (inactive) in the assay on SF-539; > 100 µM (inactive) in the assay with UACC-62; > 100 µM (inactive) in the assay with HCT-116; > 100 µM (inactive) in the assay with PC-3; 43.3 µM (inactive) in the assay on M14. The GI50 in the assay with TK-10 was > 100 µM (inactive); in the assay on SK-MEL-2, > 100 µM (inactive); in the assay with MCF7, > 100 µM (inactive); with HCT-15, greater than 100 µM; with SF-268 it was 36.3 µM (inactive); with MDA-N it was > 100 µM (inactive).
Consider `O=C1O/C(=C\c2ccc(O)c(Br)c2)C(c2ccc(O)c(Cl)c2)=C1Br`, for which the GI50 in the assay with U-251 was 13.5 µM (inactive); in the assay on EKVX, 21.2 µM (inactive); with OVCAR-8, 23 µM (inactive); in the assay with MDA-MB-231 it was 37.3 µM (inactive); in the assay with HT-29, 12.9 µM (inactive); in the assay on A549, 18.4 µM (inactive). Besides, the GI50 in the assay with KM12 is 15 µM (inactive); with SF-539, 18.6 µM (inactive); in the assay with UACC-62, 13.9 µM (inactive); with HCT-116, 13.7 µM (inactive); in the assay on PC-3, 11.7 µM (inactive); in the assay with M14, 17.8 µM (inactive). Moreover, the GI50 is 25.2 µM (inactive) in the assay on TK-10; 19.1 µM (inactive) with SK-MEL-2; 16.7 µM (inactive) with MCF7; 12.7 µM with HCT-15; 14.3 µM (inactive) in the assay with SF-268; 16.8 µM (inactive) with MDA-N.
`N#Cc1c(C#N)c(SSc2c(C#N)c(C#N)c(N)n2-c2cccc3ccccc23)n(-c2cccc3ccccc23)c1N`: the GI50 in the assay with U-251 is 19.7 µM (inactive); with EKVX, 5.51 µM (inactive); in the assay on OVCAR-8, 4.36 µM (inactive); with MDA-MB-231 it was 18.4 µM (inactive); with HT-29, 19.7 µM (inactive); in the assay with A549, 19.9 µM (inactive). For the same compound, the GI50 in the assay with KM12 is 41.6 µM (inactive); in the assay with SF-539, 15.7 µM (inactive); with UACC-62, 18 µM (inactive); in the assay with HCT-116, 2.37 µM (inactive); with PC-3, 17.4 µM (inactive); with M14, 3.08 µM (inactive). The GI50 in the assay on TK-10 is 5.77 µM (inactive); in the assay on SK-MEL-2, 15.3 µM (inactive); with MCF7 it was 3.47 µM (inactive); with HCT-15, 1.98 µM; with SF-268, 14.4 µM (inactive); with MDA-N, 6.11 µM (inactive).
With `Cc1cc(C)c2c(=O)n(CN3CCC(O)(c4ccccc4)CC3)sc2n1`, the GI50 is 77.8 µM (inactive) with U-251; 25 µM (inactive) in the assay with EKVX; 30.1 µM (inactive) in the assay with OVCAR-8; 73.1 µM (inactive) in the assay on MDA-MB-231; 28.4 µM (inactive) in the assay with HT-29; > 100 µM (inactive) in the assay with A549. In addition, the GI50 in the assay on KM12 was > 100 µM (inactive); in the assay with SF-539 it was 21.2 µM (inactive); in the assay with UACC-62, 50.9 µM (inactive); in the assay on HCT-116, 39.9 µM (inactive); with PC-3 it was 60.1 µM (inactive); with M14, 50 µM (inactive). The GI50 with TK-10 was 11.6 µM (inactive); in the assay with SK-MEL-2, > 100 µM (inactive); with MCF7, 47.9 µM (inactive); with HCT-15, 34.7 µM; with SF-268 it was 31.1 µM (inactive); in the assay on MDA-N, 19.6 µM (inactive).
For the compound `CN(C)c1ccc(/C=C(\NC(=O)c2ccccc2)c2nn(C)c(=O)o2)cc1`, the GI50 in the assay on U-251 is 24 µM (inactive); in the assay on EKVX, > 100 µM (inactive); in the assay with OVCAR-8, 26.7 µM (inactive); with MDA-MB-231, > 100 µM (inactive); in the assay with HT-29, 90.8 µM (inactive); in the assay on A549, > 100 µM (inactive). In addition, the GI50 with KM12 is 37.6 µM (inactive); in the assay with SF-539, 33.5 µM (inactive); in the assay on UACC-62, > 100 µM (inactive); in the assay on HCT-116, > 100 µM (inactive); in the assay on PC-3 it was > 100 µM (inactive); with M14, 46 µM (inactive). Also, the GI50 was > 100 µM (inactive) with TK-10; 52.5 µM (inactive) in the assay with SK-MEL-2; > 100 µM (inactive) with MCF7; greater than 100 µM in the assay on HCT-15; 44.1 µM (inactive) with SF-268; 53.6 µM (inactive) with MDA-N.
In the case of `COc1cc(OC)c(/C=C\c2cc(/C=C/c3c(OC)cc(OC)cc3OC)c3ccccc3[n+]2C)c(OC)c1`, the GI50 in the assay on U-251 was 1.28 µM (inactive); with EKVX it was 2.99 µM (inactive); in the assay with OVCAR-8 it was 1.94 µM (inactive); in the assay with MDA-MB-231, 4.03 µM (inactive); in the assay with HT-29, 1.83 µM (inactive); in the assay on A549 it was 3.94 µM (inactive). In addition, the GI50 in the assay with KM12 is 2.98 µM (inactive); with SF-539 it was 2.22 µM (inactive); in the assay on UACC-62, 2.82 µM (inactive); in the assay with HCT-116, 2.47 µM (inactive); in the assay on PC-3 it was 2.6 µM (inactive); in the assay on M14, 2.56 µM (inactive). Moreover, the GI50 is 16 µM (inactive) in the assay on TK-10; 1.74 µM (inactive) in the assay on SK-MEL-2; 2.86 µM (inactive) in the assay on MCF7; 0.719 µM in the assay on HCT-15; 2.52 µM (inactive) in the assay on SF-268; 2.65 µM (inactive) in the assay with MDA-N.
In the case of `O=[N+]([O-])C(=C(Nc1ccccc1)Nc1ccccc1)C(Cl)=C(Cl)Cl`, the GI50 in the assay on U-251 was 20.2 µM (inactive); with EKVX it was 15.7 µM (inactive); in the assay with OVCAR-8 it was 22.9 µM (inactive); in the assay on MDA-MB-231, 17.3 µM (inactive); in the assay with HT-29, 16.4 µM (inactive); with A549, 17.7 µM (inactive). Further, the GI50 in the assay with KM12 was 24.9 µM (inactive); with SF-539, 20.2 µM (inactive); in the assay on UACC-62, 15.6 µM (inactive); with HCT-116 it was 12.5 µM (inactive); in the assay on PC-3, 15.2 µM (inactive); in the assay on M14, 18.2 µM (inactive). Moreover, the GI50 in the assay on TK-10 was 22.6 µM (inactive); with SK-MEL-2 it was 13.1 µM (inactive); in the assay on MCF7 it was 12 µM (inactive); in the assay on HCT-15, 16.3 µM; with SF-268, 18.7 µM (inactive); in the assay on MDA-N it was 12.6 µM (inactive).
